How the values were obtained:
Assay in all cases: antimicrobial activity by agar dilution
Format in all cases: cell-based
Details in all cases: after 10, 20, 40 and 60 minutes at all dilutions 1:100 to 1:800
Ps. Aeruginosa = tested on: Ps. Aeruginosa
Protocol: (§1) The antimicrobial properties of the synthesized compound 9-(5-bromo-2-hydroxyphenyl)-10-[3-(dimethylamino)propyl]-3,4,6,7,9,10-hexahydroacridine-1,8(2H,5H)-dione were studied by the method of agar dilution. Test solutions of each compound were prepared in a concentration of 1% using dimethylformamide as a solvent. Then they were diluted in a physiological solution to obtain the final experimental dilutions 1:100, 1:200, 1:400, and 1:800. The effect of these substances were compared with furacillin in a controllable study. The testing microbes used were gram positive bacteria St. Aereus, gram negative bacteria E. Coli and Ps. Aeruginosa, and Candida albicans fungi. The experiments used for this survey were meat-pentonlu agar (EPA) for cultivation of bacteria and Saburo environment for fungi. Each experiment used 1 ml of test solution on each plate 500 min. Add 2 drops of emulsified with microbes feel. All experimental samples were taken from the agar after 10, 20, 40, 60 minutes in the environment on the basis of Patrk planted. Bacteria were cultivated at a temperature of 37° C. for 1 day and the mushroom was kept in a thermostat for […] at a temperature of 28° C. Then the results were checked.

St. Aereus = tested on: St. Aereus
Protocol: as §1

E. Coli = tested on: E. Coli
Protocol: as §1

Candida albicans = tested on: Candida albicans
Protocol: as §1

Measured: inhibition activity

CN(C)CCCN1C2=C(C(=O)CCC2)C(c2cc(Br)ccc2O)C2=C1CCCC2=O [9-(5-bromo-2-hydroxyphenyl)-10-[3-(dimethylamino)propyl]-3,4,6,7,9,10-hexahydroacridine-1,8(2H,5H)-dione]
highest inhibition activity: all assays above

From US11976042B1, “9-(5-bromo-2-hydroxyphenyl)-10-[3-(dimethylamino)propyl]-3,4,6,7,9,10-hexahydroacridine-1,8(2H,5H)-dione as an antimicrobial compound” (KING FAISAL UNIVERSITY, priority 2023, dated 2024)
